Reference: patent publication US7968096B2, “Methods and compositions for treating toxoplasma” (priority 2005, dated 2011)

Key:
Type in all cases: cell-based, Toxoplasma gondii
T. gondii [1] = experiment: Tachyzoite to bradyzoite conversion (P34 marker and Hsp90 subcellular localization by IFA); details: RH ΔUPRT strain, bradyzoite conditions 4 days, 100 nM GA
Protocol: FIG. 6 is two graphs showing that GA blocks tachyzoite to bradyzoite conversion. Parasites were grown under bradyzoite differentiation conditions for 4 days in the presence of 100 nM of GA or DMSO. FIG. 6A is RH UPRT knock-out parasites, and FIG. 6B is PK parasites. The y-axes depict the number of parasites/PV cysts. Cytoplasmic (c) and nuclear (n) Hsp90 localization was determined by IFA with rabbit anti-T. gondii Hsp90 serum. Parasites were also stained with the bradyzoite-specific marker p34 and scored as P34 positive (p34+) or negative (p34−). The number of P34−/Hsp90c; P34−/Hsp90c,n; P34+/Hsp90c; and P34+/Hsp90c,n per 100 PV-Cysts was counted at random, in three independent experiments.
RH UPRT knock-out parasites can be induced to differentiate into bradyzoites in low CO2, resulting in pyrimidine starvation. (Bohne et al., (eds) (1997) Stage-specific expression of a selectable marker in T. gondii permits selective inhibition of either tachyzoites or bradyzoites Vol. 88. Mol Biochem Parasitol; Bohne et al., (1997) Mol Biochem Parasitol 88, 115-126). […] Bradyzoite induction under this method was assessed and followed by cyst wall detection using the Dolichos biflorus lectin (Boothroyd et al., (1997) Philos Trans R Soc Lond B Biol Sci 352, 1347-1354). […]

T. gondii [2] = experiment: Parasite replication rate under bradyzoite differentiation conditions (parasites per PV-cyst, IFA); details: 4 days, 100 nM GA
Protocol: FIG. 5 is a graph showing that geldanamycin A (GA) affects bradyzoite replication rate. PK strain (an avirulent derivative of the Me49 strain) and ΔUPRT strain (a strain with a stage-specific selectable marker) parasites were grown under bradyzoite differentiation conditions for 4 days in the presence of 100 nM of GA or DMSO. IFAs were carried out with rabbit anti-T. gondii Hsp90 serum. Fluorescent parasites were counted and the number of parasites per parasitophorous vacuole (PV)-cysts was graphed. One hundred PV-cysts were counted. Student t test was performed by Prism3™ program (Graphpad). *p 0.05, **p 0.01. The y-axis represents the number of parasites/PV-cysts.
RH UPRT knock-out parasites can be induced to differentiate into bradyzoites in low CO2, resulting in pyrimidine starvation. […] Bradyzoite induction under this method was assessed and followed by cyst wall detection using the Dolichos biflorus lectin (Boothroyd et al., (1997) Philos Trans R Soc Lond B Biol Sci 352, 1347-1354). […]
GA (InvivoGen, San Diego, Calif.) was dissolved in dimethyl sulfoxide (DMSO) at […]. […] For replication rate studies, the number of parasites per parasitophorous vacuole or cysts (PV-Cyst) was determined for at least 100 PV-Cyst per treatment (GA or DMSO) in replicate experiments. […] Analysis of intracellular localization of Hsp90 was assessed in the same way but using rabbit anti-TgHsp90 serum. […]

T. gondii bradyzoites = experiment: In vitro transformation of encysted bradyzoites into tachyzoites (P21/SAG1 markers and Hsp90 localization by IFA)
Protocol: Released PK bradyzoites from brain cysts of infected mice were incubated with 100 nM GA or DMSO for 2 hours, washed, inoculated onto a confluent HFF monolayers, and grown under tachyzoite conditions. IFAs were performed at 4 and 24 hours post-inoculation. To identify mature bradyzoites, parasites were stained using a monoclonal anti-p21 antibody, and tachyzoites were stained using rabbit anti-SAG1. […] The y-axis depicts the number of parasites per/PV-cysts, and the x-axis depicts time in hours. […] The y-axis depicts the number of parasites per/PV-cysts, and the x-axis depicts time in hours. Parasites with cytoplasmic Hsp90 were treated with GA (Hsp90c-GA) or DMSO (Hsp90c-DMSO); parasites with cytoplasmic and nuclear Hsp90 were treated with GA (Hsp90c,n-GA) or DMSO (Hsp90n,c-DMSO). 100 PV-Cysts were counted at random in three independent experiments.
Cysts were isolated from brains of mice infected intraperitoneally 4 weeks before with PK or Me49 strain tachyzoites. Cysts were purified by isopycnic centrifugation on a percoll gradient and encysted bradyzoites were freed by trypsin digestion. In the case of GA experiments, free bradyzoites were incubated in culture media with GA […] or DMSO for 2 h, then parasites were pelleted and washed. One hundred thousand bradyzoites were inoculated onto 12 mm coverslips covered with a confluent monolayer of HFFs. Intracellular localization of Hsp90 was followed by IFA after 4 and 24 hours of infection using anti-Hsp90 serum (1:100). Monoclonal antibodies, specific to the tachyzoite surface protein SAG1 or to the bradyzoite specific protein P21 (mAb T84G10), were used to monitor stage conversion.
GA (InvivoGen, San Diego, Calif.) was dissolved in dimethyl sulfoxide (DMSO) at […]. The drug was diluted in normal culture media to the required concentrations prior to use. A range of concentrations from 1 nM to 5 μM were initially assayed to determine an effective concentration for subsequent experiments. DMSO was added in similar concentrations to control slides. For replication rate studies, the number of parasites per parasitophorous vacuole or cysts (PV-Cyst) was determined for at least 100 PV-Cyst per treatment (GA or DMSO) in replicate experiments. To measure the effect of GA on stage conversion, GA was added in bradyzoite induction experiments (as described above), slides were analyzed by IFA, and the number of P34 positive vacuoles was determined in both GA and DMSO treated cultures. Analysis of intracellular localization of Hsp90 was assessed in the same way but using rabbit anti-TgHsp90 serum. In the in vitro transformation of encysted bradyzoites into tachyzoites experiments, parasites were treated with GA (as described above) and then analyzed by IFA counting P21 and […] positive PV-Cysts in treated and control groups. For replication rate studies, the number of parasites per PV/cysts was determined for at least 100 PV-Cyst per treatment in replicate experiments.

[3] = 24 hours, Me49 bradyzoites incubated 2 hours with GA, washed, tachyzoite conditions
[4] = GA treated bradyzoites, time point not stated

For `COC1=C2C[C@@H](C)C[C@H](OC)[C@H](O)[C@@H](C)/C=C(\C)[C@H](OC(N)=O)[C@@H](OC)/C=C\C=C(/C)C(=O)NC(=CC1=O)C2=O` [GA, geldanamycin A], the “parasite vacuoles showing P34- and Hsp90c (tachyzoite phenotype)” value (T. gondii [1]) was “about 75%”, the “reduction of parasite growth compared to DMSO controls” value (T. gondii [2]; PK strain) was about 3 fold and the “reduction of parasite growth compared to DMSO controls” value (T. gondii [2]; RH strain) was about 2 fold. For the same compound, the “P21 positive and SAG1 negative parasites” value (T. gondii bradyzoites; 4 hours post-infection, all parasites (GA and DMSO), Me49 bradyzoites incubated 2 hours) was “more than 90%”, the “parasites exhibiting Hsp90c” value (T. gondii bradyzoites; 24 hours post-infection) was 100% and the SAG1 positive parasites (T. gondii bradyzoites; [3]) was “less than 5%”. For the same compound, the “parasites remaining P21 positive” value (T. gondii bradyzoites; [3]) was “more than 90%”, the “bradyzoites showing Hsp90c staining” value (T. gondii bradyzoites; [4]) was 80% and the “bradyzoites showing Hsp90n,c staining pattern” value (T. gondii bradyzoites; [4]) was 20%. The “reduction of level of invasion compared with DMSO treated parasites” value (T. gondii bradyzoites; bradyzoites treated with GA) was 40-66%.
